Marks after values point to notes of the source that are not given here.
What was measured:
Assay type in all cases: in vivo, human
[1] = Phase 3 study of lanabecestat in mild AD dementia, 78-week placebo-controlled period: effect on weight; details: for Weight decrease ≥ 7%, (%): placebo 6.3; for mean weight change: completers at week 78, placebo −0.2 kg
Procedure: A Phase 3, multicenter, randomized, double-blind, global study of lanabecestat in patients with mild AD dementia that included a 78-week placebo-controlled period, for which results are provided below.
Lanabecestat was provided orally once daily for 78 weeks at 20 mg or 50 mg and compared to the results for once daily administration of placebo.
The key inclusion criteria for the study were as follows: • Population aged 55 to 85 years; • Mild AD: meet National Institute on Aging and the Alzheimer's Association (NIA-AA) criteria with a Clinical Dementia Rating Scale-Global Score (CDR-GS) of 0.5 or 1, with memory box score ≥0.5; • Mini-Mental State Examination (MMSE) score 20-26; • Study partner; • Amyloid positive • Cerebrospinal fluid; or • Florbetapir amyloid Positron Emission Tomography (PET); or • Historical amyloid PET.
(§1) The key exclusion criteria for the study were: • Unstable medical conditions or medications; • Magnetic resonance imaging (MRI): >5 microhemorrhages, significant cerebrovascular pathology, or other pathologies; • QT interval adjusted for heart rate using the Fridericia formula (QTcF) >470 ms; • History of vitiligo and/or current evidence of post-inflammatory hypo-pigmentation.
Comparing completers at week 78, the mean weight change was −0.2 kg for placebo (n=24), −1.4 kg for lanabecestat 20 mg (n=27), and −2.9 kg for lanabecestat 50 mg (n=20). The overall p-value and pairwise p-value compared to placebo was ≤0.05 (nominal p-value, not adjusted for multiplicity).

[2] = Phase 2/3 104-week placebo-controlled study of lanabecestat in early Alzheimer's Disease: effect on weight; details: for Weight decrease ≥ 7%, (%): placebo 12.7; for mean weight change: completers at week 104, placebo 0.0 kg
From the text: A Phase 2/3, multicenter, randomized, 104-week, double-blind, placebo-controlled, global study of lanabecestat in patients with early Alzheimer's Disease (AD), defined as the continuum of patients with mild cognitive impairment (MCI) due to AD and patients diagnosed with mild AD dementia.
Lanabecestat, i.e., the camsylate salt of (1r,1′R,4R)-4-methoxy-5″-methyl-6′-[5-(prop-1-yn-1-yl)pyridin-3-yl]-3′H-dispiro[cyclohexane-1,2′-indene-1′,2″-imidazol]-4″-amine
was provided orally once daily for 104 weeks at 20 mg or 50 mg and compared to the results for once daily administration of placebo.
The key inclusion criteria for the study were as follows: • Population aged 55 to 85 years old; • Mild AD: meet National Institute on Aging and the Alzheimer's Association (NIA-AA) criteria with a Clinical Dementia Rating Scale-Global Score (CDR-GS) of 0.5 or 1; • MCI: meet NIA-AA criteria with a CDR-GS of 0.5; • CDR memory box score ≥0.5; • Mini-Mental State Examination (MMSE)≥20; • Repeatable Battery for the Assessment of Neuropsychological Status Delayed Memory Index (RBANS DMI)≤85; • Study partner; • Amyloid positive • Cerebrospinal fluid; or • Florbetapir amyloid Positron Emission Tomography (PET); or • Historical amyloid PET.
as §1, with “were as follows:” for “were:”, “Resonance Imaging” for “resonance imaging”, “hypo-pigmentation or exposure to depigmenting agents.” for “hypo-pigmentation.”
Comparing completers at week 104, the mean weight change was for 0.0 kg for placebo (n=202), −0.8 kg for lanabecestat 20 mg (n=187), and −1.9 kg for lanabecestat 50 mg (n=178). The overall p-value and pairwise p-value compared to placebo was ≤0.05 (nominal p-value, not adjusted for multiplicity).

[3] = Combined analysis of the two studies of Examples 1 and 2: weight change from baseline and weight decrease over time; details: for mean (SD) kg change from baseline: 52 weeks
Procedure: A further analysis of the subjects in the two studies described in Examples 1 and 2 above was performed, for which results are provided below.
FIGS. 1-3 show weight change from baseline over the course of the 104 week studies. […] At 52 weeks, the mean (SD) kg change from baseline in the Lanabecestat 50 mg group versus placebo was −1.5 kg (4.4) vs +0.1 kg (3.4).
At 52 weeks, the mean (SD) kg change from baseline in the Lanabecestat 50 mg group versus placebo was −0.65 kg (3.4) vs +0.3 kg (3.3).
Table 10 provides data for the weight decrease over time for the population with a baseline BMI>25 kg/m^2 versus the overall population, showing that there is a greater percent decrease in weight in the higher BMI group versus the overall population.

[4] = week 26, all patients, L20 (20 mg), N=1080
[5] = week 26, all patients, L50 (50 mg), N=1047
[6] = week 26, patients with baseline BMI > 25, L20 (20 mg), N=532
[7] = week 26, patients with baseline BMI > 25, L50 (50 mg), N=494
[8] = week 52, all patients, L20 (20 mg), N=726
[9] = week 52, all patients, L50 (50 mg), N=716
[10] = week 52, patients with baseline BMI > 25, L20 (20 mg), N=348
[11] = week 52, patients with baseline BMI > 25, L50 (50 mg), N=348
[12] = week 78, all patients, L20 (20 mg), N=366
[13] = week 78, all patients, L50 (50 mg), N=347
[14] = week 78, patients with baseline BMI > 25, L20 (20 mg), N=170
[15] = week 78, patients with baseline BMI > 25, L50 (50 mg), N=161
[16] = week 104, all patients, L20 (20 mg), N=187
[17] = week 104, all patients, L50 (50 mg), N=178
[18] = week 104, patients with baseline BMI > 25, L20 (20 mg), N=89
[19] = week 104, patients with baseline BMI > 25, L50 (50 mg), N=77

## CC#Cc1cncc(-c2ccc3c(c2)[C@@]2(N=C(C)C(N)=N2)[C@]2(CC[C@H](OC)CC2)C3)c1 [Lanabecestat, (1r,1′R,4R)-4-methoxy-5″-methyl-6′-[5-(prop-1-yn-1-yl)pyridin-3-yl]-3′H-dispiro[cyclohexane-1,2′-indene-1′,2″-imidazol]-4″-amine]
[1]; 20 mg, N=570
  Weight decrease ≥ 7%, (%): (9.5) %
[1]; 50 mg, N=545
  Weight decrease ≥ 7%, (%): (14.5)* %
[1]; lanabecestat 20 mg once daily oral, n=27
  mean weight change: -1.4 kg
[1]; lanabecestat 50 mg once daily oral, n=20
  mean weight change: -2.9 kg
[2]; 20 mg, N=728
  Weight decrease ≥ 7%, (%): (21.2)* %
[2]; 50 mg, N=723
  Weight decrease ≥ 7%, (%): (24.9)* %
[2]; lanabecestat 20 mg once daily oral, n=187
  mean weight change: -0.8 kg
[2]; lanabecestat 50 mg once daily oral, n=178
  mean weight change: -1.9 kg
[3]; 50 mg, at 2 years
  weight loss of ≥5% and ≥10% versus placebo: statistically significant weight loss
[3]; baseline BMI>25 kg/m^2, 50 mg, SD 5.2, placebo −0.4 kg (3.6)
  mean (SD) kg change from baseline: -2.5 kg
[3]; baseline BMI≤25 kg/m^2, 50 mg, SD 3.4, placebo +0.3 kg (3.3)
  mean (SD) kg change from baseline: -0.65 kg
[3]; overall population, 50 mg, SD 4.4, placebo +0.1 kg (3.4)
  mean (SD) kg change from baseline: -1.5 kg
[3]; [4]
  Weight loss ≥5%, % of patients: (14%)***
  Weight loss ≥5%, n patients: 147
  Weight loss ≥10%, % of patients: 1%
  Weight loss ≥10%, n patients: 15
  Weight loss ≥15%, % of patients: 0.3%
  Weight loss ≥15%, n patients: 3
[3]; [5]
  Weight loss ≥5%, % of patients: (16%)***
  Weight loss ≥5%, n patients: 172
  Weight loss ≥10%, % of patients: (3%)**
  Weight loss ≥10%, n patients: 28
  Weight loss ≥15%, % of patients: 0.5%
  Weight loss ≥15%, n patients: 5
[3]; [6]
  Weight loss ≥5%, % of patients: (16%)***
  Weight loss ≥5%, n patients: 87
  Weight loss ≥10%, % of patients: 2%
  Weight loss ≥10%, n patients: 11
  Weight loss ≥15%, % of patients: 0.6%
  Weight loss ≥15%, n patients: 3
[3]; [7]
  Weight loss ≥5%, % of patients: (18%)***
  Weight loss ≥5%, n patients: 90
  Weight loss ≥10%, % of patients: 4%
  Weight loss ≥10%, n patients: 20
  Weight loss ≥15%, % of patients: 1%
  Weight loss ≥15%, n patients: 3
[3]; [8]
  Weight loss ≥5%, % of patients: (19%)***
  Weight loss ≥5%, n patients: 139
  Weight loss ≥10%, % of patients: 5%
  Weight loss ≥10%, n patients: 35
  Weight loss ≥15%, % of patients: 1%
  Weight loss ≥15%, n patients: 8
[3]; [9]
  Weight loss ≥5%, % of patients: (25%)***
  Weight loss ≥5%, n patients: 180
  Weight loss ≥10%, % of patients: (5%)**
  Weight loss ≥10%, n patients: 39
  Weight loss ≥15%, % of patients: 1%
  Weight loss ≥15%, n patients: 8
[3]; [10]
  Weight loss ≥5%, % of patients: (24%)***
  Weight loss ≥5%, n patients: 82
  Weight loss ≥10%, % of patients: 7%
  Weight loss ≥10%, n patients: 26
  Weight loss ≥15%, % of patients: 2%
  Weight loss ≥15%, n patients: 8
[3]; [11]
  Weight loss ≥5%, n patients: 104
  Weight loss ≥10%, % of patients: 7%
  Weight loss ≥10%, n patients: 26
  Weight loss ≥15%, % of patients: 2%
  Weight loss ≥15%, n patients: 6
[3]; [12]
  Weight loss ≥5%, % of patients: (23%)**
  Weight loss ≥5%, n patients: 85
  Weight loss ≥10%, % of patients: 7%
  Weight loss ≥10%, n patients: 26
  Weight loss ≥15%, % of patients: 2%
  Weight loss ≥15%, n patients: 9
[3]; [13]
  Weight loss ≥5%, % of patients: (31%)***
  Weight loss ≥5%, n patients: 107
  Weight loss ≥10%, % of patients: (10%)***
  Weight loss ≥10%, n patients: 36
  Weight loss ≥15%, % of patients: 2%
  Weight loss ≥15%, n patients: 7
[3]; [14]
  Weight loss ≥5%, % of patients: (31%)*
  Weight loss ≥5%, n patients: 52
  Weight loss ≥10%, % of patients: 10%
  Weight loss ≥10%, n patients: 17
  Weight loss ≥15%, % of patients: 5%
  Weight loss ≥15%, n patients: 9
[3]; [15]
  Weight loss ≥5%, % of patients: (35%)**
  Weight loss ≥5%, n patients: 57
  Weight loss ≥10%, % of patients: 12%
  Weight loss ≥10%, n patients: 20
  Weight loss ≥15%, % of patients: 3%
  Weight loss ≥15%, n patients: 5
[3]; [16]
  Weight loss ≥5%, % of patients: 26%
  Weight loss ≥5%, n patients: 48
  Weight loss ≥10%, % of patients: 9%
  Weight loss ≥10%, n patients: 16
  Weight loss ≥15%, % of patients: 2%
  Weight loss ≥15%, n patients: 4
[3]; [17]
  Weight loss ≥5%, % of patients: (38%)***
  Weight loss ≥5%, n patients: 67
  Weight loss ≥10%, % of patients: (17%)***
  Weight loss ≥10%, n patients: 31
  Weight loss ≥15%, % of patients: 3%
  Weight loss ≥15%, n patients: 6
[3]; [18]
  Weight loss ≥5%, % of patients: 30%
  Weight loss ≥5%, n patients: 27
  Weight loss ≥10%, % of patients: 15%
  Weight loss ≥10%, n patients: 13
  Weight loss ≥15%, % of patients: 4 (4%)
  Weight loss ≥15%, n patients: 4 (4%)
[3]; [19]
  Weight loss ≥5%, % of patients: (42%)**
  Weight loss ≥5%, n patients: 32
  Weight loss ≥10%, % of patients: 19%
  Weight loss ≥15%, % of patients: 4%
  Weight loss ≥15%, n patients: 3
